From US20260234161A1, “RIFABUTIN ANALOGS FOR THE TREATMENT OF BACTERIAL DISEASES” (BIOVERSYS AG, priority 2023, published 2026)
Converted amounts (≈) assume the structure as drawn.

Key:
Type in all cases: cell-based
[1] = tested on: S. aureus (UAMS-1625 strain); experiment: MIC by broth microdilution, S. aureus; conditions: Staphylococcus aureus, 20 h, read-out: MIC S. aureus
Procedure: (§1) MIC values were determined by broth microdilution method according to the CLSI guidelines with the following exceptions: MIC against A. baumannii was performed in RPMI medium supplemented with 10% FCS and MIC against M. abscessus was performed in Middlebrook 7H9 broth supplemented with Middlebrook ADC growth supplement (10%; see column “M. abscessus 7H9”). MIC forM abscessus was determined a second time in standard cation adjusted Mueller Hinton broth without growth supplement (see colum “M. abscessus MH”). All other MIC were performed in standard cation adjusted Mueller Hinton broth, supplemented with Middlebrook ADC growth supplement (5%) for the slow growing mycobacteria (M. xenopi, M. kansasii and M. avium).
(§2) The following procedure applies to all species tested, except forM xenopi. From a fresh culture plate (from overnight to several days depending on the bacteria), cells were resuspended in 0.9% (w/v) saline solution and bacterial inoculum was prepared in the respective testing medium with 5×10^5 CFU/mL. For M. xenopi, the inoculum was prepared from a fresh liquid culture (7H9+ADC). The appropriate volumes of a 10 mg/mL compound solution were directly dispensed in the 96-well assay plate using a digital dispenser to create two-fold dilution series from 32 to 0.002 μg/mL final concentration for A. baumannii and S. aureus; from 16 to 0.016 μg/mL for M. abscessus and M. avium; and from 1 to 6×10^−5 μg/mL for M. kansasii and M. xenopi. 100 μL of bacterial suspension was finally added to the compounds. Plates were covered and incubated without shaking at 35° C. for 20 hours for A. baumanii and S. aureus; at 30° C. for 4 days for M. abscessus; and at 37° C. for 7 days (at least) for M. kansasii (covered with aluminum foil to avoid light exposure), M. avium and M. xenopi. Every experiment contained an antibiotic as quality control. MIC was determined visually as the lowest concentration of a compound that prevents visible growth of the bacteria.
(§3) The in vitro activity of compounds described herein was determined against S. aureus (UAMS-1625 strain), A. baumannii (HUMC1 strain), M. abscessus (ATCC 19977), M. kansasii (ATCC 12478), M. avium (ATCC 25291), and M. xenopi (ATCC 19250).

[2] = tested on: A. baumannii (HUMC1 strain); experiment: MIC by broth microdilution, A. baumannii (RPMI + 10% FCS); conditions: Acinetobacter baumannii; HUMC1 strain; RPMI medium + 10% FCS; 35° C., 20 hours; read-out: MIC A. baumannii
Procedure: as §1, §2, §3

[3] = tested on: M. abscessus (ATCC 19977); experiment: MIC by broth microdilution, M. abscessus in cation adjusted Mueller Hinton broth; conditions: Mycobacteroides abscessus, ATCC19977, 96 h; ATCC 19977; cation adjusted Mueller Hinton broth without growth supplement; 30° C., 4 days; read-out: MIC M. abscessus MH
Procedure: as §1, §2, §3

## CO[C@H]1/C=C/O[C@@]2(C)Oc3c(C)c(O)c4c(c3C2=O)C2=NC3(CCN(CC(C)C)CC3)NC2=C(NC(=O)/C(C)=C\C=C\[C@H](C)[C@H](O)[C@@H](C)[C@@H](O)[C@@H](C)[C@H](OC(=O)N2CCCC3(CCN(C)CC3)C2)[C@@H]1C)C4=O [Compound 20]
[1]
  MIC: 0.06 µg/mL (≈ 0.06 µM)
[2]
  MIC: ≤ 0.016 µg/mL
[3]
  MIC: 1 µg/mL (≈ 1 µM)

## CO[C@H]1/C=C/O[C@@]2(C)Oc3c(C)c(O)c4c(c3C2=O)C2=NC3(CCN(CC(C)C)CC3)NC2=C(NC(=O)/C(C)=C\C=C\[C@H](C)[C@H](O)[C@@H](C)[C@@H](O)[C@@H](C)[C@H](OC(=O)N2CCOC3(CCN(C)CC3)C2)[C@@H]1C)C4=O [Compound 24]
[1]
  MIC: 0.06 µg/mL (≈ 0.0599 µM)
[2]
  MIC: ≤ 0.016 µg/mL
[3]
  MIC: 2 µg/mL (≈ 2 µM)

## CO[C@H]1/C=C/O[C@@]2(C)Oc3c(C)c(O)c4c(c3C2=O)C2=NC3(CCN(CC(C)C)CC3)NC2=C(NC(=O)/C(C)=C\C=C\[C@H](C)[C@H](O)[C@@H](C)[C@@H](O)[C@@H](C)[C@H](OC(=O)N2CCN3CCCC3C2)[C@@H]1C)C4=O (stereo partly drawn) [Compound 25]
[1]
  MIC: 0.03 µg/mL (≈ 0.0313 µM)
[2]
  MIC: ≤ 0.016 µg/mL
[3]
  MIC: 2 µg/mL (≈ 2.09 µM)

## CO[C@H]1/C=C/O[C@@]2(C)Oc3c(C)c(O)c4c(c3C2=O)C2=NC3(CCN(CC(C)C)CC3)NC2=C(NC(=O)/C(C)=C\C=C\[C@H](C)[C@H](O)[C@@H](C)[C@@H](O)[C@@H](C)[C@H](OC(=O)NC2CCN(CC3CCCCC3)CC2)[C@@H]1C)C4=O [Compound 29]
[1]
  MIC: 0.125 µg/mL (≈ 0.122 µM)
[2]
  MIC: ≤ 0.016 µg/mL
[3]
  MIC: 0.25 µg/mL (≈ 0.243 µM)

## CO[C@H]1/C=C/O[C@@]2(C)Oc3c(C)c(O)c4c(c3C2=O)C2=NC3(CCN(CC(C)C)CC3)NC2=C(NC(=O)/C(C)=C\C=C\[C@H](C)[C@H](O)[C@@H](C)[C@@H](O)[C@@H](C)[C@H](OC(=O)N2CC3CC2CN3Cc2ccccc2)[C@@H]1C)C4=O [Compound 32]
[1]
  MIC: 0.25 µg/mL (≈ 0.245 µM)
[2]
  MIC: 0.03 µg/mL
[3]
  MIC: 0.5 µg/mL (≈ 0.491 µM)

## CO[C@H]1/C=C/O[C@@]2(C)Oc3c(C)c(O)c4c(c3C2=O)C2=NC3(CCN(CC(C)C)CC3)NC2=C(NC(=O)/C(C)=C\C=C\[C@H](C)[C@H](O)[C@@H](C)[C@@H](O)[C@@H](C)[C@H](OC(=O)N2CCC3(CCN(CC5CCCCC5)C3)C2)[C@@H]1C)C4=O (stereo partly drawn) [Compound 36]
[1]
  MIC: 0.25 µg/mL (≈ 0.237 µM)
[2]
  MIC: 0.06 µg/mL
[3]
  MIC: 0.125 µg/mL (≈ 0.119 µM)

## CO[C@H]1/C=C/O[C@@]2(C)Oc3c(C)c(O)c4c(c3C2=O)C2=NC3(CCN(CC(C)C)CC3)NC2=C(NC(=O)/C(C)=C\C=C\[C@H](C)[C@H](O)[C@@H](C)[C@@H](O)[C@@H](C)[C@H](OC(=O)N2CCN(Cc3nccn3C)CC2)[C@@H]1C)C4=O [Compound 37]
[1]
  MIC: 0.03 µg/mL (≈ 0.0297 µM)
[2]
  MIC: ≤ 0.016 µg/mL
[3]
  MIC: 2 µg/mL (≈ 1.98 µM)

## CO[C@H]1/C=C/O[C@@]2(C)Oc3c(C)c(O)c4c(c3C2=O)C2=NC3(CCN(CC(C)C)CC3)NC2=C(NC(=O)/C(C)=C\C=C\[C@H](C)[C@H](O)[C@@H](C)[C@@H](O)[C@@H](C)[C@H](OC(=O)N2CCN(Cc3c(C)noc3C)CC2)[C@@H]1C)C4=O [Compound 38]
[1]
  MIC: 0.125 µg/mL (≈ 0.122 µM)
[2]
  MIC: ≤ 0.016 µg/mL
[3]
  MIC: 1 µg/mL (≈ 0.974 µM)

## CO[C@H]1/C=C/O[C@@]2(C)Oc3c(C)c(O)c4c(c3C2=O)C2=NC3(CCN(CC(C)C)CC3)NC2=C(NC(=O)/C(C)=C\C=C\[C@H](C)[C@H](O)[C@@H](C)[C@@H](O)[C@@H](C)[C@H](OC(=O)N2CCCN(CC3CCCCC3)CC2)[C@@H]1C)C4=O [Compound 41]
[1]
  MIC: 1 µg/mL (≈ 0.973 µM)
[2]
  MIC: 0.06 µg/mL
[3]
  MIC: 0.125 µg/mL (≈ 0.122 µM)

## CO[C@H]1/C=C/O[C@@]2(C)Oc3c(C)c(O)c4c(c3C2=O)C2=NC3(CCN(CC(C)C)CC3)NC2=C(NC(=O)/C(C)=C\C=C\[C@H](C)[C@H](O)[C@@H](C)[C@@H](O)[C@@H](C)[C@H](OC(=O)N2CCN(CCO)CC2)[C@@H]1C)C4=O [Compound 43]
[1]
  MIC: 0.06 µg/mL (≈ 0.0624 µM)
[2]
  MIC: ≤ 0.016 µg/mL
[3]
  MIC: 8 µg/mL (≈ 8.32 µM)

## CO[C@H]1/C=C/O[C@@]2(C)Oc3c(C)c(O)c4c(c3C2=O)C2=NC3(CCN(CC(C)C)CC3)NC2=C(NC(=O)/C(C)=C\C=C\[C@H](C)[C@H](O)[C@@H](C)[C@@H](O)[C@@H](C)[C@H](OC(=O)N2CCN(CCOCCO)CC2)[C@@H]1C)C4=O [Compound 44]
[1]
  MIC: 0.03 µg/mL (≈ 0.0298 µM)
[2]
  MIC: ≤ 0.016 µg/mL
[3]
  MIC: 4 µg/mL (≈ 3.98 µM)

## CO[C@H]1/C=C/O[C@@]2(C)Oc3c(C)c(O)c4c(c3C2=O)C2=NC3(CCN(CC(C)C)CC3)NC2=C(NC(=O)/C(C)=C\C=C\[C@H](C)[C@H](O)[C@@H](C)[C@@H](O)[C@@H](C)[C@H](OC(=O)N2CCN(CCc3ccccc3)CC2)[C@@H]1C)C4=O [Compound 46]
[1]
  MIC: 0.25 µg/mL (≈ 0.245 µM)
[2]
  MIC: 0.25 µg/mL
[3]
  MIC: 0.5 µg/mL (≈ 0.49 µM)

## COCCN1CCN(C(=O)O[C@H]2[C@H](C)[C@H](O)[C@H](C)[C@@H](O)[C@@H](C)/C=C/C=C(/C)C(=O)NC3=C4NC5(CCN(CC(C)C)CC5)N=C4c4c(c(O)c(C)c5c4C(=O)[C@@](C)(O/C=C/[C@H](OC)[C@H]2C)O5)C3=O)CC1 [Compound 48]
[1]
  MIC: 0.06 µg/mL (≈ 0.0615 µM)
[2]
  MIC: ≤ 0.016 µg/mL
[3]
  MIC: 1 µg/mL (≈ 1.03 µM)

## CO[C@H]1/C=C/O[C@@]2(C)Oc3c(C)c(O)c4c(c3C2=O)C2=NC3(CCN(CC(C)C)CC3)NC2=C(NC(=O)/C(C)=C\C=C\[C@H](C)[C@H](O)[C@@H](C)[C@@H](O)[C@@H](C)[C@H](OC(=O)N2CCN(CC(C)(C)C)CC2)[C@@H]1C)C4=O [Compound 49]
[1]
  MIC: 0.5 µg/mL (≈ 0.506 µM)
[2]
  MIC: 1 µg/mL
[3]
  MIC: 0.125 µg/mL (≈ 0.127 µM)

## CO[C@H]1/C=C/O[C@@]2(C)Oc3c(C)c(O)c4c(c3C2=O)C2=NC3(CCN(CC(C)C)CC3)NC2=C(NC(=O)/C(C)=C\C=C\[C@H](C)[C@H](O)[C@@H](C)[C@@H](O)[C@@H](C)[C@H](OC(=O)N2CCNCC2)[C@@H]1C)C4=O [Compound 51]
[1]
  MIC: 0.016 µg/mL (≈ 0.0174 µM)
[2]
  MIC: ≤ 0.001 µg/mL
[3]
  MIC: 4 µg/mL (≈ 4.36 µM)

## CO[C@H]1/C=C/O[C@@]2(C)Oc3c(C)c(O)c4c(c3C2=O)C2=NC3(CCN(CC(C)C)CC3)NC2=C(NC(=O)/C(C)=C\C=C\[C@H](C)[C@H](O)[C@@H](C)[C@@H](O)[C@@H](C)[C@H](OC(=O)N2CCN(CCC(C)C)CC2)[C@@H]1C)C4=O [Compound 52]
[1]
  MIC: 0.25 µg/mL (≈ 0.253 µM)
[2]
  MIC: 0.06 µg/mL
[3]
  MIC: 0.125 µg/mL (≈ 0.127 µM)

## CO[C@H]1/C=C/O[C@@]2(C)Oc3c(C)c(O)c4c(c3C2=O)C2=NC3(CCN(CC(C)C)CC3)NC2=C(NC(=O)/C(C)=C\C=C\[C@H](C)[C@H](O)[C@@H](C)[C@@H](O)[C@@H](C)[C@H](OC(=O)N2CCN(CC3CCOCC3)CC2)[C@@H]1C)C4=O [Compound 53]
[1]
  MIC: 0.125 µg/mL (≈ 0.123 µM)
[2]
  MIC: 0.004 µg/mL
[3]
  MIC: 0.125 µg/mL (≈ 0.123 µM)

## CO[C@H]1/C=C/O[C@@]2(C)Oc3c(C)c(O)c4c(c3C2=O)C2=NC3(CCN(CC(C)C)CC3)NC2=C(NC(=O)/C(C)=C\C=C\[C@H](C)[C@H](O)[C@@H](C)[C@@H](O)[C@@H](C)[C@H](OC(=O)N2CCN(CC(C)C)CC2)[C@@H]1C)C4=O [Compound 54]
[1]
  MIC: 0.125 µg/mL (≈ 0.128 µM)
[2]
  MIC: 0.03 µg/mL
[3]
  MIC: 0.06 µg/mL (≈ 0.0617 µM)

## CO[C@H]1/C=C/O[C@@]2(C)Oc3c(C)c(O)c4c(c3C2=O)C2=NC3(CCN(CC(C)C)CC3)NC2=C(NC(=O)/C(C)=C\C=C\[C@H](C)[C@H](O)[C@@H](C)[C@@H](O)[C@@H](C)[C@H](OC(=O)N2CCN(Cc3ccco3)CC2)[C@@H]1C)C4=O [Compound 55]
[1]
  MIC: 0.125 µg/mL (≈ 0.125 µM)
[2]
  MIC: ≤ 0.016 µg/mL
[3]
  MIC: 2 µg/mL (≈ 2.01 µM)

## CO[C@H]1/C=C/O[C@@]2(C)Oc3c(C)c(O)c4c(c3C2=O)C2=NC3(CCN(CC(C)C)CC3)NC2=C(NC(=O)/C(C)=C\C=C\[C@H](C)[C@H](O)[C@@H](C)[C@@H](O)[C@@H](C)[C@H](OC(=O)N2CCN(c3nccs3)CC2)[C@@H]1C)C4=O [Compound 57]
[1]
  MIC: 0.06 µg/mL (≈ 0.06 µM)
[2]
  MIC: 0.03 µg/mL
[3]
  MIC: 0.5 µg/mL (≈ 0.5 µM)

## CO[C@H]1/C=C/O[C@@]2(C)Oc3c(C)c(O)c4c(c3C2=O)C2=NC3(CCN(CC(C)C)CC3)NC2=C(NC(=O)/C(C)=C\C=C\[C@H](C)[C@H](O)[C@@H](C)[C@@H](O)[C@@H](C)[C@H](OC(=O)N2C[C@@H]3C[C@H]2CN3CC2CCCCC2)[C@@H]1C)C4=O [Compound 58]
[1]
  MIC: 0.125 µg/mL (≈ 0.122 µM)
[2]
  MIC: 0.03 µg/mL
[3]
  MIC: 0.125 µg/mL (≈ 0.122 µM)
